Columns and labels:
[1] = biological target: T1, BKB1 receptor (Homo sapiens, UniProt P46663); conditions: Gobeil et al. 1996; cited from earlier work
T1 sequence (P46663 1-353): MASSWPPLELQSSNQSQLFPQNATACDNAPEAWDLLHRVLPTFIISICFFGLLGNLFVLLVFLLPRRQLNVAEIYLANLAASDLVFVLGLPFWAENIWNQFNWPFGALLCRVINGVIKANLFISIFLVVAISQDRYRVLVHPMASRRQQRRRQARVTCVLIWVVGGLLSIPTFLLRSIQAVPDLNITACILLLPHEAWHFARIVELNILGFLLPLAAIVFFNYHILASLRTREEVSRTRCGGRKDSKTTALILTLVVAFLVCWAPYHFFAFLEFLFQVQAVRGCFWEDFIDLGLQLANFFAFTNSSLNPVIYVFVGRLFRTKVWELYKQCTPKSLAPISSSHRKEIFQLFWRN

[2] = serum; conditions: rat, 37° C., up to 4 hours
[3] = blood; conditions: rat, 37° C., up to 4 hours
[4] = plasma; conditions: rat, 37° C., up to 4 hours
[5] = human plasma as a source of aminopeptidase M (AmM); conditions: up to 60 min
[6] = tested on: angiotensin converting enzyme (ACE); test: Purified ACE from rabbit lungs (Sigma, St. Louis, Mo.) dissolved in PBS (50 mM, pH 7.5, containing 300 mM NaCl and 10 μM ZnCl2); conditions: 37° C., up to 60 min
[7] = tested on: STZ diabetic mice; test: Tail flick test, type-1 diabetic hyperalgesia; format: in vivo
Method: (§1) Male CD-1 mice weighting between 25–30 g (Charles River Breeding Laboratory, St-Constant, QC, Canada) were used. The mice were housed four by cage with free access to food and water. They were maintained under conditions of standard lighting, (alternating 12-h light/dark cycle), temperature (22±0.5° C.) and humidity (60±10%) with food and water available at libitum. Animals were used only once in a given experiment. Experiments were conducted between 10:00 and 18:00 h.
(§2) Streptozotocin (Pharmacia & Upjohn Incorporation, Mississauga, ON, Canada) was dissolved in saline at a pH of 4.5 and administered to mice i.p. The BKB1 agonist desArg^9BK and compound c were dissolved in saline and administered to mice i.p.
(§3) Insulin-dependent diabetes mellitus (IDDM) was induced in mice using STZ. Male CD-1 mice were given a single high i.p. dose of STZ (200 mg/kg) (McEvoy et al., 1984, J Clin Invest 74, 715–722). […] Blood glucose levels were determined with an automatic analyzer (Glucometer Elite XL, Bayer Incorporation, Toronto, Ontario, Canada) using glucose oxidase/potassium ferricyanide reagent strips. […]
The tail flick test of D'Amour and Smith (D'Amour and Smith, 1941, J Pharmacol Exp Ther 72, 74–79) modified for mice was used. […] The radiant light is focussed on a blackened spot in the mid region of the animal's tail (2–3 cm from the tip of the tail) and the latency between the application of the stimulation light and the flicking of the animal's tail is recorded. When the animal flicks its tail, its exposes a photocell in the apparatus immediately below the tail and the instrument is automatically stopped and the time is recorded. […]
(§4) The effect of the selected drugs on nociception was determined by converting the hot plate, the plantar stimulation, the tail immersion or the tail flick responses from latencies into MPE (Maximum Percent Effect) according to the following equation (Bhargava and Zhao, 1996, Neuropeptides, 30, 219–223): […]

[8] = tested on: STZ diabetic mice; test: Plantar stimulation test, type-1 diabetic hyperalgesia; format: in vivo
Method: as §1, with “h. […]” for “h.”
(§5) Insulin-dependent diabetes mellitus (IDDM) was induced in mice using STZ. […] Blood glucose levels were determined with an automatic analyzer (Glucometer Elite XL, Bayer Incorporation, Toronto, Ontario, Canada) using glucose oxidase/potassium ferricyanide reagent strips. […]
In the plantar stimulation test, the method of Hargreaves et al. (Hargreaves et al., 1988, Pain, 32, 77–88) was used to access the hind-paw nociceptive withdrawal thresholds of a free moving mouse to thermal stimuli. […] Each latency value was determined from two applications of the radiant heat stimulus, separated by 1–2 min intervals, and the mean of the two measures is taken. […]
(§6) In all tests, pre-treatment latencies were determined three times with an interval of 24 h starting three days before the injection of STZ or saline and the mean was calculated in order to obtain stable pre-drug response latency. […]

[9] = tested on: STZ diabetic mice; test: Tail immersion test, type-1 diabetic hyperalgesia; format: in vivo
Method: as §1, with “h. […]” for “h.”
as §5
The tail-immersion test was performed according to Coderre and Rollman (Coderre and Rollman, 1983, Life Sci 32, 2139–2146). […] The latency between submersion of the tail and its removal from the water by the animal was recorded, with a maximum cut-off time of 10 seconds to minimize tail skin tissue damage. […]
as §4

[10] = tested on: STZ diabetic mice; test: Hot plate test, type-1 diabetic hyperalgesia; format: in vivo; conditions: 400 μg/kg i.p.
Method: as §1, §2, §3
The hot plate test was adapted from the technique of Eddy and Leimbach (1953, J Pharmacol Exp Ther 107, 385–389). […] When the pain threshold is reached the animal starts to react by licking its hind paw or to jump, and the reaction time is recorded with a built-in timer, with a maximum cut-off time of 30 s to avoid tissue damage. […]
as §4, §6

[11] = tested on: carboxypeptidases of the M type (CPM); conditions: cited from earlier work
[12] = tested on: aminopeptidases; conditions: cited from earlier work
[13] = tested on: carboxypeptidases of the N type (CPN); conditions: cited from earlier work

In the case of “Lys-desArg^9BK (KRPPGFSPF; Lys - des-Arg9 Bradykinin) [BKB1 receptor agonist]”, the “potency relative to desArg^9BK” value [1] is listed as 100 fold.
With “Ac-Orn[Oic^2,(α-Me)Phe^5,D-βNal^7,Ile^8]desArg^9BK” the not cleaved [2] was >90% parent remaining after 4 hours, the not cleaved [3] was >90% parent remaining after 4 hours and the not cleaved [4] was >90% parent remaining after 4 hours. The not cleaved [5] was “Peptide metabolism 0 % (60 min)” and the not cleaved [6] was “Peptide metabolism 0 % (60 min)”.
In the case of desArg^9BK, the “potentiating effect on hyperalgesic activity” value ([7]; STZ diabetic mice, maximal after 10 min) is reported as 48%, the “change in tail flick test” value ([7]; control mice, 400 μg/kg i.p.) is reported as “did not induce significant changes” and the MPE ([8]; STZ diabetic mice, 400 μg/kg i.p., 20 min after injection) is reported as −21.03±0.75%. The “change in nociceptive response” value ([8]; healthy mice) was “did not induce significant changes”, the MPE ([9]; STZ diabetic mice, i.p., 20 min after administration) was −19.23±0.60% and the “change in tail immersion latencies” value ([9]; control mice) was “did not show significant changes”. For the same substance, the “potentiation of hyperalgesic response” value ([10]; STZ diabetic mice) was 98% and the “change in nociceptive response” value ([10]; control mice) was “did not induce significant changes”.
In the case of Lys Arg Pro Pro Gly Phe Ser Pro Phe Arg, the cleaved bond [11] is listed as “Phe8-Arg9”, the fragment found [12] is listed as “BK” and the cleaved bond [13] is listed as “Phe8-Arg9”.

— US7211566B2 (Universite De Sherbrooke, priority 2003, dated 2007)
